Reference: ChEMBL document CHEMBL5727426, “Tetrahydroisoquinoline derived PRMT5-inhibitors” (2019)

Test: Revised Biochemical Assay: Compounds of the invention may be tested for in vitro activity in the following assay: A histone H4 derived peptide is used as substrate (amino acid sequence: […]N H2). Full-length PRMT5 enzyme (NCBI Reference sequence NP_006100.2) was co-expressed with His6-MEP50 in insect cells and purified via Nickel immobilized metal affinity and gel filtration chromatography (the enzyme).The 6 μL reactions are run in Greiner brand black 384-well low volume assay plates. All reactions contained assay buffer (phosphate buffered saline, 0.01% (v/v) Tween-20, 0.01% (w/v) albumin from chicken egg white, 1 mM Dithiothreitol, 1 μM peptide substrate, 1 μM S-Adenosyl methionine, and 15 ng/reaction enzyme, with the enzyme being omitted from negative control reactions. Compounds were added in a volume of 100 nL from dilution series prepared in DMSO, positive and negative control reactions receiving the same volume DMSO without compound. The plates were sealed with adhesive seals and incubated for 4 hours at 37 degree Celsius. Reaction progress was measured using the Transcreener EPIGEN methyltransferase assay (BellBrook Labs, Madison, Wis.) as recommended by the manufacturer. To each reaction 2 μL detection mix were added, containing coupling enzymes, fluorescence polarisation tracer, and AMP antibody. Plates were incubated for 90 minutes before being read on a PerkinElmer EnVision plate reader in fluorescence polarisation mode.

Row | Compound | IC50 [nM]
1 | O=C(NC[C@@H](O)[C@@H]1Cc2ccccc2CN1)c1ccc2[nH]ncc2c1 | 2740
2 | Cc1ccc(C(=O)NC[C@@H](O)[C@@H]2Cc3ccccc3CN2)cn1 | 4660
3 | COC(=O)N1[C@@H]2CC[C@H]1CC(Oc1cc(C(=O)NC[C@@H](O)[C@@H]3Cc4ccccc4CN3)ccn1)C2 (stereo partly drawn) | 38
